Target: T1, human acetyl-CoA carboxylase 2 (ACC2) (Homo sapiens, UniProt O00763)
T1 construct: The cDNA encoding amino acids 144 to 2458 of human acetyl-CoA carboxylase 2; made in house; host or cells: Sf9 insect cells (baculovirus, pFastBac1)
Assay: Acetyl-CoA carboxylase enzyme assay (malonyl-CoA formation by LC/MS/MS)
Format: biochemical
Settings: recombinant human ACC2 (aa 144-2458); read-out: IC50 ACC2
Summary of the method: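 Malonyl-CoA formation was read by LC/MS/MS MRM against a [13C3]-malonyl-CoA internal standard, after acetic acid quench. The enzyme was baculovirus/Sf9-expressed human ACC2 residues 144–2458, given 15 minutes room-temperature compound preincubation in HEPES pH 7.5 buffer with MgCl2, citrate and DTT. Substrate solution held 50 μM acetyl-CoA, 120 μM ATP and 2 mM KHCO3.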

T1 sequence (O00763 144-2458): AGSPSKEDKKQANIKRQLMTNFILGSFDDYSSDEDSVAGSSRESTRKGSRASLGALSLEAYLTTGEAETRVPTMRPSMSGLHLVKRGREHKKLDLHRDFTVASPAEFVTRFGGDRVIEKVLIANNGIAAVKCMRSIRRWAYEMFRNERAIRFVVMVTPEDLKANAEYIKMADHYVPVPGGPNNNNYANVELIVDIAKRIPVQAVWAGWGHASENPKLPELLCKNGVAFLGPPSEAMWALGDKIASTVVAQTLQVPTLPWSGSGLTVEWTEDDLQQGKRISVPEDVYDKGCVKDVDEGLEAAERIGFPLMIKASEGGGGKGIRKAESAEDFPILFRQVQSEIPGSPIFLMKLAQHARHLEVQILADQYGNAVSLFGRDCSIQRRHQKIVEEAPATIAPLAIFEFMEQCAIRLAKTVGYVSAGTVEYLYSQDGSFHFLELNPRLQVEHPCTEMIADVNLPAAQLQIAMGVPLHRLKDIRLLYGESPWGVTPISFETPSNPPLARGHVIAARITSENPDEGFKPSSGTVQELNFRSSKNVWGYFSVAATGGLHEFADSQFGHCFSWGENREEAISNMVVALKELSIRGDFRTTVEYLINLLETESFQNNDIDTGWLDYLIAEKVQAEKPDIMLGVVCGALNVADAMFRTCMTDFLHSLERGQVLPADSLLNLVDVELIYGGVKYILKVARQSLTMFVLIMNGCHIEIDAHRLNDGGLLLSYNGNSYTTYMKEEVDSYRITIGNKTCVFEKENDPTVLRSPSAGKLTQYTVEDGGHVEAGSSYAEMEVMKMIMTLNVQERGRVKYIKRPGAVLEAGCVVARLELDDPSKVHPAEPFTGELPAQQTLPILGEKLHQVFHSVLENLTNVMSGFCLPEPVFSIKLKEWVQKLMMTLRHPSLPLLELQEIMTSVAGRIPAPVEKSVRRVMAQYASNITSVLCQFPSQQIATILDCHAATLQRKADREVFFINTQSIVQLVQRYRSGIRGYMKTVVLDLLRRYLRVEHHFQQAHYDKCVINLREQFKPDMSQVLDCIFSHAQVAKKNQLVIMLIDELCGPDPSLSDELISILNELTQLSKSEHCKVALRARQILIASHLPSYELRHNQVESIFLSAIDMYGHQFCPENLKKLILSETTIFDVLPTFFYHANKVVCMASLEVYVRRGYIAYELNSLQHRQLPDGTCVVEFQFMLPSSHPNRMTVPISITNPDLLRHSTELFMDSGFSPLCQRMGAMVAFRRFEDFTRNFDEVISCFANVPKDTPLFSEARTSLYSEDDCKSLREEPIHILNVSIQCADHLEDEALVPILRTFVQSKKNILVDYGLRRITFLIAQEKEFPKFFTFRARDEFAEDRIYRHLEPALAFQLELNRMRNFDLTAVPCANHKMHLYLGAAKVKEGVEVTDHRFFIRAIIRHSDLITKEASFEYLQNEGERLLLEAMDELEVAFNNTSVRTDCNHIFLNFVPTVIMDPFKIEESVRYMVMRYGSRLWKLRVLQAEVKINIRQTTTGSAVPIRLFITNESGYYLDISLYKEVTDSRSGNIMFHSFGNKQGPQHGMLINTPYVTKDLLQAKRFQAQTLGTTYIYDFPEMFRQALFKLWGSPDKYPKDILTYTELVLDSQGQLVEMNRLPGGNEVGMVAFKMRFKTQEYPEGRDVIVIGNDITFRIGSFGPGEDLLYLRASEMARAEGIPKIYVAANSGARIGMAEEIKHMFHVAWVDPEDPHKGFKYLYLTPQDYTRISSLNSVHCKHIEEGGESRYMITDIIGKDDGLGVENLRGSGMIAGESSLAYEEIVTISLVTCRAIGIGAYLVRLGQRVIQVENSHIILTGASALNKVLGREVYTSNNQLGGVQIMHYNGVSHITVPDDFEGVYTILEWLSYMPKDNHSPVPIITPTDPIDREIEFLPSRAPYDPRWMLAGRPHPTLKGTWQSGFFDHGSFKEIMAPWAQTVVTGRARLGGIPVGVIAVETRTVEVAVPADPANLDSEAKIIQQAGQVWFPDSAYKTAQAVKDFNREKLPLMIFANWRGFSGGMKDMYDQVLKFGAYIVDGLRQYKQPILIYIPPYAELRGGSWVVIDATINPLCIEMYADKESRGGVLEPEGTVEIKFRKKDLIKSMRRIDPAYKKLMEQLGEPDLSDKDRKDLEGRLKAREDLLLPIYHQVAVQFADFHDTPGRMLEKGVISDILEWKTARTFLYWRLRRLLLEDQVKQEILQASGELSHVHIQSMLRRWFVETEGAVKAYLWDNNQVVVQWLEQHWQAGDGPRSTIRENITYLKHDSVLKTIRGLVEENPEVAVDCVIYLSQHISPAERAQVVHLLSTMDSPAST

Compound	IC50
CC(C)c1nnc([C@H]2CC[C@H](NS(=O)(=O)c3ccc4[nH]c(-c5ccccc5)nc4c3)CC2)o1 [Example 586, N-((1r,4r)-4-(5-isopropyl-1,3,4-oxadiazol-2-yl)cyclohexyl)-2-phenyl-1H-benzo[d]imidazole-5-sulfonamide]	1300 nM
CC(C)c1nnc([C@H]2CC[C@H](NS(=O)(=O)c3ccc4[nH]c(-c5ccc(N6CCN(C)CC6)cc5)nc4c3)CC2)o1 [Example 587, N-((1r,4r)-4-(5-isopropyl-1,3,4-oxadiazol-2-yl)cyclohexyl)-2-(4-(4-methylpiperazin-1-yl)phenyl)-1H-benzo[d]imidazole-5-sulfonamide]	294 nM
CC(C)(C)c1nnc([C@H]2CC[C@H](NS(=O)(=O)c3ccc4[nH]c(-c5ccc(N6CCOCC6)cc5)nc4c3)CC2)o1 [Example 588, N-((1r,4r)-4-(5-tert-butyl-1,3,4-oxadiazol-2-yl)cyclohexyl)-2-(4-morpholinophenyl)-1H-benzo[d]imidazole-5-sulfonamide]	267 nM
CC(C)c1nnc([C@H]2CC[C@H](NS(=O)(=O)c3ccc4[nH]c(-c5ccc(N6CCOCC6)cc5)nc4c3)CC2)o1 [Example 589, N-((1r,4r)-4-(5-isopropyl-1,3,4-oxadiazol-2-yl)cyclohexyl)-2-(4-morpholinophenyl)-1H-benzo[d]imidazole-5-sulfonamide]	516 nM
CC(C)c1nnc(-c2ccc(NS(=O)(=O)c3ccc4[nH]c(-c5ccc(N6CCN(C)CC6)cc5)nc4c3)cc2)o1 [Example 590, N-(4-(5-isopropyl-1,3,4-oxadiazol-2-yl)phenyl)-2-(4-(4-methylpiperazin-1-yl)phenyl)-1H-benzo[d]imidazole-5-sulfonamide]	430 nM
CN1CCN(c2ccc(-c3nc4cc(S(=O)(=O)Nc5ccc(-c6nnc(C(C)(C)C)o6)cc5)ccc4[nH]3)cc2)CC1 [Example 592, N-(4-(5-tert-butyl-1,3,4-oxadiazol-2-yl)phenyl)-2-(4-(4-methylpiperazin-1-yl)phenyl)-1H-benzo[d]imidazole-5-sulfonamide]	415 nM
CC(C)(C)c1nnc(-c2ccc(NS(=O)(=O)c3ccc4[nH]c(-c5ccc(N6CCOCC6)cc5)nc4c3)cc2)o1 [Example 593, N-(4-(5-tert-butyl-1,3,4-oxadiazol-2-yl)phenyl)-2-(4-morpholinophenyl)-1H-benzo[d]imidazole-5-sulfonamide]	1010 nM
COc1ccc(Nc2nc3cc(S(=O)(=O)N[C@H]4CC[C@H](c5nnc(C(C)C)o5)CC4)ccc3[nH]2)cc1 [Example 594, N-((1r,4r)-4-(5-isopropyl-1,3,4-oxadiazol-2-yl)cyclohexyl)-2-(4-methoxyphenylamino)-1H-benzo[d]imidazole-5-sulfonamide]	202 nM
CC(C)c1nnc([C@H]2CC[C@H](NS(=O)(=O)c3ccc4[nH]c(Nc5ccccc5)nc4c3)CC2)o1 [Example 595, N-((1r,4r)-4-(5-isopropyl-1,3,4-oxadiazol-2-yl)cyclohexyl)-2-(phenylamino)-1H-benzo[d]imidazole-5-sulfonamide]	259 nM
COc1ccc(Nc2nc3cc(S(=O)(=O)N[C@H]4CC[C@H](c5nnc(C(C)(C)C)o5)CC4)ccc3[nH]2)cc1 [Example 596, N-((1r,4r)-4-(5-tert-butyl-1,3,4-oxadiazol-2-yl)cyclohexyl)-2-(4-methoxyphenylamino)-1H-benzo[d]imidazole-5-sulfonamide]	180 nM
CC(C)(C)c1nnc([C@H]2CC[C@H](NS(=O)(=O)c3ccc4[nH]c(Nc5ccccc5)nc4c3)CC2)o1 [Example 597, N-((1r,4r)-4-(5-tert-butyl-1,3,4-oxadiazol-2-yl)cyclohexyl)-2-(phenylamine)-1H-benzo[d]imidazole-5-sulfonamide]	162 nM
CC(C)c1nnc([C@H]2CC[C@H](NS(=O)(=O)c3ccc4[nH]c(Nc5ccc(N6CCN(C)CC6)cc5)nc4c3)CC2)o1 [Example 598, N-((1r,4r)-4-(5-isopropyl-1,3,4-oxadiazol-2-yl)cyclohexyl)-2-(4-(4-methylpiperazin-1-yl)phenylamino)-1H-benzo[d]imidazole-5-sulfonamide]	88 nM
CC(C)c1nnc([C@H]2CC[C@H](NS(=O)(=O)c3ccc4[nH]c(Nc5ccc(N6CCOCC6)cc5)nc4c3)CC2)o1 [Example 599, N-((1r,4r)-4-(5-isopropyl-1,3,4-oxadiazol-2-yl)cyclohexyl)-2-(4-morpholinophenylamino)-1H-benzo[d]imidazole-5-sulfonamide]	270 nM
CC(C)(C)c1nnc([C@H]2CC[C@H](NS(=O)(=O)c3ccc4[nH]c(Nc5ccc(N6CCOCC6)cc5)nc4c3)CC2)o1 [Example 600, N-((1r,4r)-4-(5-tert-butyl-1,3,4-oxadiazol-2-yl)cyclohexyl)-2-(4-morpholinophenylamino)-1H-benzo[d]imidazole-5-sulfonamide]	139 nM
CC(C)c1nnc(-c2ccc(NS(=O)(=O)c3ccc4[nH]c(Nc5ccccc5)nc4c3)cc2)o1 [Example 601, N-(4-(5-isopropyl-1,3,4-oxadiazol-2-yl)phenyl)-2-(phenylamino)-1H-benzo[d]imidazole-5-sulfonamide]	539 nM
COc1ccc(Nc2nc3cc(S(=O)(=O)Nc4ccc(-c5nnc(C(C)C)o5)cc4)ccc3[nH]2)cc1 [Example 602, N-(4-(5-isopropyl-1,3,4-oxadiazol-2-yl)phenyl)-2-(4-methoxyphenylamino)-1H-benzo[d]imidazole-5-sulfonamide]	536 nM
CC(C)c1nnc(-c2ccc(NS(=O)(=O)c3ccc4[nH]c(Nc5ccc(N6CCOCC6)cc5)nc4c3)cc2)o1 [Example 603, N-(4-(5-isopropyl-1,3,4-oxadiazol-2-yl)phenyl)-2-(4-morpholinophenylamino)-1H-benzo[d]imidazole-5-sulfonamide]	323 nM
COc1ccc(Nc2nc3cc(S(=O)(=O)Nc4ccc(-c5nnc(C(C)(C)C)o5)cc4)ccc3[nH]2)cc1 [Example 604, N-(4-(5-tert-butyl-1,3,4-oxadiazol-2-yl)phenyl)-2-(4-methoxyphenylamino)-1H-benzo[d]imidazole-5-sulfonamide]	676 nM
CC(C)c1nnc(-c2ccc(NS(=O)(=O)c3ccc4[nH]c(Nc5ccc(N6CCN(C)CC6)cc5)nc4c3)cc2)o1 [Example 605, N-(4-(5-isopropyl-1,3,4-oxadiazol-2-yl)phenyl)-2-(4-(4-methylpiperazin-1-yl)phenylamino)-1H-benzo[d]imidazole-5-sulfonamide]	138 nM
C[C@@H](NC(=O)[C@H]1CC[C@H](NS(=O)(=O)c2ccc3[nH]c(Nc4ccc(N5CCN(C)CC5)cc4)nc3c2)CC1)c1ccccc1 [Example 606, (1r,4R)-4-(2-(4-(4-methylpiperazin-1-yl)phenylamino)-1H-benzo[d]imidazole-5-sulfonamido)-N-((R)-1-phenylethyl)cyclohexanecarboxamide]	< 10 nM
CC(C)(C)c1nnc([C@H]2CC[C@H](NS(=O)(=O)c3ccc4[nH]c(-c5ccc(F)cc5)nc4c3)CC2)o1 [Example 607, N-((1r,4r)-4-(5-tert-butyl-1,3,4-oxadiazol-2-yl)cyclohexyl)-2-(4-fluorophenyl)-1H-benzo[d]imidazole-5-sulfonamide]	1090 nM
COC(=O)c1cccc(-c2nc3cc(S(=O)(=O)N[C@H]4CC[C@H](c5nnc(C(C)(C)C)o5)CC4)ccc3[nH]2)c1 [Example 608, methyl 3-(5-(N-((1r,4r)-4-(5-tert-butyl-1,3,4-oxadiazol-2-yl)cyclohexyl)sulfamoyl)-1H-benzo[d]imidazol-2-yl)benzoate]	971 nM

Reference: patent US8697739B2, “Bicyclic acetyl-CoA carboxylase inhibitors and uses thereof” (Novartis AG, priority 2010, dated 2014)
